Results taken from ChEMBL document CHEMBL3085700 (J Med Chem, 2013).
The source made the active and inactive calls. No cut-off for these calls is given here.

Legend:
[1] = biological target: T1, Fatty-acid amide hydrolase 1 (Mus musculus) (UniProt O08914); conditions: Brain, Membrane, 10 uM
T1 sequence (whole entry): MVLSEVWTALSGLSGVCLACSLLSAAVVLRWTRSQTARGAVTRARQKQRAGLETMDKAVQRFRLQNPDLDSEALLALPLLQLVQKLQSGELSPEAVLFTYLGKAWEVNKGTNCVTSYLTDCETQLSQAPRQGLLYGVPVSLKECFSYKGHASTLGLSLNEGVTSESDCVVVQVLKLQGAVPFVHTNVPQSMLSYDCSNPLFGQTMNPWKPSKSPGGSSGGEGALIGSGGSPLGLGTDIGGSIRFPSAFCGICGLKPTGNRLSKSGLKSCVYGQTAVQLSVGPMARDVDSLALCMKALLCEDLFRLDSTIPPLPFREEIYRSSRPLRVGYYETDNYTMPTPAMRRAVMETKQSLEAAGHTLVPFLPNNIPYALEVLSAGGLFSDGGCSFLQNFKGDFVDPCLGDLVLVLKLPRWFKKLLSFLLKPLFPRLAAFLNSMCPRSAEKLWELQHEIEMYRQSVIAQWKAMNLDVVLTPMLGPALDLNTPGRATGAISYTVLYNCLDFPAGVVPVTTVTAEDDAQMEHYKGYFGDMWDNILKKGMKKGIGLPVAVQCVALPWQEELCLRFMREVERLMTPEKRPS
Description: Inhibition of TAMRA-FP-labeled FAAH in mouse brain membrane at 10 uM after 1 hr by fluorescent gel scanning assay

[2] = biological target: T2, Fatty-acid amide hydrolase 1 (Homo sapiens, UniProt O00519); experiment: Inhibition of human recombinant FAAH overexpressed in African green monkey COS7 cells using [3H]-anandamide as substrate preincubated for 10 mins before substrate addition measured after 10 mins by liquid scintillation counting analysis; assay type: cell-based, COS-7
T2 sequence (O00519 whole entry): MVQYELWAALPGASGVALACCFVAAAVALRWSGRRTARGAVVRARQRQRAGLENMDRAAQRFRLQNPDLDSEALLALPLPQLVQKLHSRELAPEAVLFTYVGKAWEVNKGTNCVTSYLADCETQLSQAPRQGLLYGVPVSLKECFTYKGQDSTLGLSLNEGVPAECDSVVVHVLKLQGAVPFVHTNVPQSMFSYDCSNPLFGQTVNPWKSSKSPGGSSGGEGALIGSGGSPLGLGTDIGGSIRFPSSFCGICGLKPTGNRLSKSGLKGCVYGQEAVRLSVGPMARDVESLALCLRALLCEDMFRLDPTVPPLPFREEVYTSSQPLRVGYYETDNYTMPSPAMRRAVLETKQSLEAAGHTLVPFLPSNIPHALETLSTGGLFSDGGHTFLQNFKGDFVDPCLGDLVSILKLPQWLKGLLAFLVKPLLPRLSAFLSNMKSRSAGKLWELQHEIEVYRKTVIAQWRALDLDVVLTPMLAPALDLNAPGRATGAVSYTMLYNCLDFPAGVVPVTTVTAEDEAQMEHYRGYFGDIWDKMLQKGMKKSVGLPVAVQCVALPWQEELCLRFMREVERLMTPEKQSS

[3] = biological target: T3, Lysophosphatidylserine lipase ABHD12 (Homo sapiens) (UniProt Q8N2K0); experiment: Inhibition of human ABHD12 overexpressed in HEK293 cells assessed as 2-AG hydrolysis at 1 uM by fluorescent glycerol assay; assay type: cell-based
T3 sequence (whole entry): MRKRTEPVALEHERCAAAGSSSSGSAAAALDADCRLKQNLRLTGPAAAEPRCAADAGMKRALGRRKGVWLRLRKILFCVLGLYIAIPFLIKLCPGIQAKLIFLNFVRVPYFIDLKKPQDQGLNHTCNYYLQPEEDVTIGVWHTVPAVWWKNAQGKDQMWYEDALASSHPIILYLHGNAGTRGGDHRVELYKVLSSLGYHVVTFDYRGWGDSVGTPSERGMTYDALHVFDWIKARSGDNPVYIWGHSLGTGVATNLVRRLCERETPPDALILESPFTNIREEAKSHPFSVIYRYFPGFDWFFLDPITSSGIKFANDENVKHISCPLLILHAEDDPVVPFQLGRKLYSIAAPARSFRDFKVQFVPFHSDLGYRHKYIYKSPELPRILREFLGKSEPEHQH

[4] = biological target: T4, Fatty-acid amide hydrolase 1 (Rattus norvegicus) (UniProt P97612); experiment: Inhibition of FAAH in rat RBL2H3 cells assessed as blockade of [3H]-anandamide uptake at 1 uM incubated for 15 mins prior to [3H]-anandamide addition measured after 10 mins by scintillation spectroscopic analysis; assay type: cell-based; conditions: RBL-2H3
T4 sequence (whole entry): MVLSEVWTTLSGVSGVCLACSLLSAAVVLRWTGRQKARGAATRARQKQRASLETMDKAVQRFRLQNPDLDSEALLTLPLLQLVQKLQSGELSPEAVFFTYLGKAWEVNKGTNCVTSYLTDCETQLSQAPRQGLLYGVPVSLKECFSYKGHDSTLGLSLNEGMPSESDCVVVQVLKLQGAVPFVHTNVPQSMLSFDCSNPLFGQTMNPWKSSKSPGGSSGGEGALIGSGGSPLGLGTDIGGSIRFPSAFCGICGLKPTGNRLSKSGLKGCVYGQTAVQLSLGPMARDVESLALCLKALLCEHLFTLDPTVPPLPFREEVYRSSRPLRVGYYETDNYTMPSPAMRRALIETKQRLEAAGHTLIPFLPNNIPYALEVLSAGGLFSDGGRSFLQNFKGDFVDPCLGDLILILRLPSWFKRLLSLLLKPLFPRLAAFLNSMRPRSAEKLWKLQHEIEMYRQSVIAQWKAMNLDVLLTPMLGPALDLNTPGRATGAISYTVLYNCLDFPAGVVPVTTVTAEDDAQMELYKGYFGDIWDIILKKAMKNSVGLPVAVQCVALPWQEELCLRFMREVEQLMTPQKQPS

[5] = biological target: T5, Monoglyceride lipase (Homo sapiens, UniProt Q99685); experiment: Inhibition of human recombinant MAGL overexpressed in HEK cells using 2-AG as substrate preincubated for 10 mins before substrate addition measured after 10 mins by HPLC analysis; assay type: cell-based, HEK293
T5 sequence (Q99685 whole entry): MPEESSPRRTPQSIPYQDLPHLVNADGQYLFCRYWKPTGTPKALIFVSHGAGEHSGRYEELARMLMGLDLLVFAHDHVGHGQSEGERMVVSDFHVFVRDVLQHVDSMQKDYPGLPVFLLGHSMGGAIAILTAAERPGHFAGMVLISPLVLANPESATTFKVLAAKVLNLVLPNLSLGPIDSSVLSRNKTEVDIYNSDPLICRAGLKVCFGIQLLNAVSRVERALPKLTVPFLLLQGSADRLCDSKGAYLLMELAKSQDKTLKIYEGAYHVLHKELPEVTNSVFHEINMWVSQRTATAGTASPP

[6] = biological target: T6, Monoacylglycerol lipase ABHD6 (Homo sapiens) (UniProt Q9BV23); experiment: Inhibition of human ABHD6 overexpressed in HEK293 cells assessed as 2-AG hydrolysis at 1 uM by fluorescent glycerol assay; assay type: cell-based
T6 sequence (whole entry): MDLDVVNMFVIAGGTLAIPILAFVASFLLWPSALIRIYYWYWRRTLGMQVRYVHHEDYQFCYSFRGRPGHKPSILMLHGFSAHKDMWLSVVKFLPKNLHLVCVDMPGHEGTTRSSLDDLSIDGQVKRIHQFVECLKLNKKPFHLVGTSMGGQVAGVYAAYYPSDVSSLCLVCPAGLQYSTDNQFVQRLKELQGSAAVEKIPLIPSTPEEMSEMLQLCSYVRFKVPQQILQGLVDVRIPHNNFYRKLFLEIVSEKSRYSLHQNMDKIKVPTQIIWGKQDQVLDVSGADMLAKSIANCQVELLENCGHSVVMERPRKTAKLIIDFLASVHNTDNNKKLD

[7] = biological target: T4, Fatty-acid amide hydrolase 1 (Rattus norvegicus); experiment: Inhibition of FAAH in rat RBL2H3 cells assessed as blockade of [3H]-anandamide uptake at 0.0001 to 1 uM incubated for 15 mins prior to [3H]-anandamide addition measured after 10 mins by scintillation spectroscopic analysis in presence of JJKK-048; assay type: cell-based; conditions: RBL-2H3
[8] = biological target: T7, Fatty-acid amide hydrolase 1 (Rattus norvegicus, UniProt P97612); experiment: Inhibition of FAAH in rat RBL2H3 cells assessed as blockade of [3H]-anandamide uptake incubated for 15 mins prior to [3H]-anandamide addition measured after 10 mins by scintillation spectroscopic analysis; assay type: cell-based, RBL-2H3
T7 sequence (P97612 whole entry): T4 sequence (whole entry)

[9] = biological target: T8, Prostaglandin G/H synthase 1 (Ovis aries) (UniProt P05979); experiment: Inhibition of ovine COX-1 using arachidonic acid as substrate assessed as oxygen consumption at 30 uM measured within 10 to 50 secs
T8 sequence (whole entry): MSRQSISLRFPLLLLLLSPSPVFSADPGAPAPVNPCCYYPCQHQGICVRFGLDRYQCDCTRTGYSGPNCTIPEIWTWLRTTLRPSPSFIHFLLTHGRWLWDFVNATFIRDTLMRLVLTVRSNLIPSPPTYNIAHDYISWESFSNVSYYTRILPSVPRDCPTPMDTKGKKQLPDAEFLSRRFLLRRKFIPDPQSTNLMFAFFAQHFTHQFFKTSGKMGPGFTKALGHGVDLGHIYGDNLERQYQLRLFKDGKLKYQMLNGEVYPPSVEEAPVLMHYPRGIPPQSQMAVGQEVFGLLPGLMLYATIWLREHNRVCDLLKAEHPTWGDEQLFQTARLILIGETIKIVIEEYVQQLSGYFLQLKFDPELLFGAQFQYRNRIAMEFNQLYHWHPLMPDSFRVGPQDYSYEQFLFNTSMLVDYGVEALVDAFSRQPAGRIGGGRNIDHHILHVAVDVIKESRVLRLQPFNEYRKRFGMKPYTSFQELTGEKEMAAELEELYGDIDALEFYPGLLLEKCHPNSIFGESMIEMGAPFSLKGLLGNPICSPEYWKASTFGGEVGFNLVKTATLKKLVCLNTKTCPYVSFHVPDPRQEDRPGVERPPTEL

[10] = biological target: T9, Prostaglandin G/H synthase 2 (Homo sapiens) (UniProt P35354); experiment: Inhibition of human recombinant COX-2 assessed as inhibition of 2-AG cyclooxygenation at 30 uM measured within 10 to 50 secs relative to control
T9 sequence (whole entry): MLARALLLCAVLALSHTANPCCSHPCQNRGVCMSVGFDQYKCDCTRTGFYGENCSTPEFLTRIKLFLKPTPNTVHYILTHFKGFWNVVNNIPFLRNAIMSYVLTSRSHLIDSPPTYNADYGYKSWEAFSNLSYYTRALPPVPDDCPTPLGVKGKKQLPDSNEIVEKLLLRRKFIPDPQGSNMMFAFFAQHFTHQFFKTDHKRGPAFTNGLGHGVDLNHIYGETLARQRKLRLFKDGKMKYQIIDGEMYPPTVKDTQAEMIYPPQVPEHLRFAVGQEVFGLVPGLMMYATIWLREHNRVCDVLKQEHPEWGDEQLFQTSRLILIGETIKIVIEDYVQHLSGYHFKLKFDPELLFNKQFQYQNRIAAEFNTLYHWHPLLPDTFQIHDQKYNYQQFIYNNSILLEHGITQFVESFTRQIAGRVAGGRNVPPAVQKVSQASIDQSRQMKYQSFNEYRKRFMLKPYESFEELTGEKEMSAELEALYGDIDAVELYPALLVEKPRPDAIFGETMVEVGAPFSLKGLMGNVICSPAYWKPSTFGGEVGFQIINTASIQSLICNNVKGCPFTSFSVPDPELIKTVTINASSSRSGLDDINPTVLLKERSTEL

[11] = biological target: T9, Prostaglandin G/H synthase 2 (Homo sapiens); experiment: Inhibition of human recombinant COX-2 assessed as inhibition of arachidonic acid cyclooxygenation at 30 uM measured within 10 to 50 secs relative to control
[12] = biological target: T9, Prostaglandin G/H synthase 2 (Homo sapiens); experiment: Inhibition of human recombinant COX-2 assessed as inhibition of 2-AG cyclooxygenation at 10 uM measured within 10 to 50 secs relative to control
[13] = biological target: T9, Prostaglandin G/H synthase 2 (Homo sapiens); experiment: Inhibition of human recombinant COX-2 assessed as inhibition of 2-AG cyclooxygenation at 100 uM measured within 10 to 50 secs relative to control
[14] = biological target: T8, Prostaglandin G/H synthase 1 (Ovis aries); experiment: Inhibition of ovine COX-1 using arachidonic acid as substrate assessed as oxygen consumption at 100 uM measured within 10 to 50 secs
[15] = biological target: T9, Prostaglandin G/H synthase 2 (Homo sapiens); experiment: Inhibition of human recombinant COX-2 assessed as inhibition of arachidonic acid cyclooxygenation at 10 uM measured within 10 to 50 secs relative to control
[16] = biological target: T8, Prostaglandin G/H synthase 1 (Ovis aries); experiment: Inhibition of ovine COX-1 using arachidonic acid as substrate assessed as oxygen consumption at 10 uM measured within 10 to 50 secs
[17] = biological target: T9, Prostaglandin G/H synthase 2 (Homo sapiens); experiment: Inhibition of human recombinant COX-2 assessed as inhibition of arachidonic acid cyclooxygenation at 100 uM measured within 10 to 50 secs relative to control

| Compound | inhibition [1] | IC50 ([2]; read-out: IC50) [µM] | IC50 ([2]; read-out: pIC50 (converted)) [µM] | inhibition [3] | inhibition [4] | IC50 ([5]; read-out: IC50) [µM] | inhibition [6] | inhibition [7] | IC50 [8] [µM] | inhibition [9] [%] | inhibition [10] [%] | inhibition [11] [%] | inhibition [12] [%] | IC50 ([5]; read-out: pIC50 (converted)) [µM] | inhibition [13] [%] | inhibition [14] [%] | inhibition [15] [%] | inhibition [16] | inhibition [17] [%] |
| --- | --- | --- | --- | --- | --- | --- | --- | --- | --- | --- | --- | --- | --- | --- | --- | --- | --- | --- | --- |
| O=C(Oc1ccc([N+](=O)[O-])cc1)N1CCN(Cc2cccc(Oc3ccccc3)c2)CC1 | Active |  |  |  |  |  |  |  |  |  |  |  |  |  |  |  |  |  |  |
| COc1nn(C(C)c2ccc(N(c3ccccc3)c3ccccc3)cc2)c(=O)o1 (racemic) |  | 0.12 | 0.115 | inactive | Active | 0.63 | inactive | Active | 0.011 |  |  |  |  |  |  |  |  |  |  |
| COc1nn([C@H](C)c2ccc(CC(C)C)cc2)c(=O)o1 |  | 0.24 | 0.245 | inactive |  | 4 | inactive |  |  | 10 | 10 | 40 | 20 | 13.5 | 30 | 20 | 30 | inactive | 50 |
